Data from ChEMBL document CHEMBL5154747, “Discovery of new carbonic anhydrase IX inhibitors as anticancer agents by toning the hydrophobic and hydrophilic rims of the active site to encounter the dual-tail approach” (Eur J Med Chem, 2022).

Experiments:
[1] = system: A549; assay: Anticancer activity against human A549 cells assessed as cell growth inhibition at 10 uM incubated for 48 hrs by SRB assay relative to control; assay type: functional; settings: read-out: GI
[2] = system: COLO 205; assay: Anticancer activity against human COLO 205 cells assessed as cell growth inhibition at 10 uM incubated for 48 hrs by SRB assay relative to control; assay type: functional; settings: read-out: GI
[3] = system: K562; assay: Anticancer activity against human K562 cells assessed as cell growth inhibition at 10 uM incubated for 48 hrs by SRB assay relative to control; assay type: functional; settings: read-out: GI
[4] = system: SF-295; assay: Anticancer activity against human SF-295 cells assessed as cell growth inhibition at 10 uM incubated for 48 hrs by SRB assay relative to control; assay type: functional; settings: read-out: GI
[5] = system: T47D; assay: Anticancer activity against human T47D cells assessed as cell growth inhibition at 10 uM incubated for 48 hrs by SRB assay relative to control; assay type: functional; settings: read-out: GI
[6] = system: MDA-MB-435; assay: Anticancer activity against human MDA-MB-435 cells assessed as cell growth inhibition at 10 uM incubated for 48 hrs by SRB assay relative to control; assay type: functional; settings: read-out: GI
[7] = system: MDA-MB-468; assay: Anticancer activity against human MDA-MB-468 cells assessed as cell growth inhibition at 10 uM incubated for 48 hrs by SRB assay relative to control; assay type: functional; settings: read-out: GI
[8] = system: CCRF-CEM; assay: Anticancer activity against human CCRF-CEM cells assessed as cell growth inhibition at 10 uM incubated for 48 hrs by SRB assay relative to control; assay type: functional; settings: read-out: GI
[9] = system: NCI-H322M; assay: Anticancer activity against human NCI-H322M cells assessed as cell growth inhibition at 10 uM incubated for 48 hrs by SRB assay relative to control; assay type: functional; settings: read-out: GI
[10] = target: Carbonic anhydrase 9 (Homo sapiens, UniProt Q16790); assay: Inhibition of recombinant human CA 9 preincubated for 15 mins by phenol red dye based stopped flow CO2 hydration assay
[11] = system: NCI-H460; assay: Anticancer activity against human NCI-H460 cells assessed as cell growth inhibition at 10 uM incubated for 48 hrs by SRB assay relative to control; assay type: functional; settings: read-out: GI
[12] = system: OVCAR-8; assay: Anticancer activity against human OVCAR-8 cells assessed as cell growth inhibition at 10 uM incubated for 48 hrs by SRB assay relative to control; assay type: functional; settings: read-out: GI
[13] = system: HOP-92; assay: Anticancer activity against human HOP-92 cells assessed as cell growth inhibition at 10 uM incubated for 48 hrs by SRB assay relative to control; assay type: functional; settings: read-out: GI
[14] = system: A498; assay: Anticancer activity against human A498 cells assessed as cell growth inhibition at 10 uM incubated for 48 hrs by SRB assay relative to control; assay type: functional; settings: read-out: GI
[15] = system: U-251; assay: Anticancer activity against human U-251 cells assessed as cell growth inhibition at 10 uM incubated for 48 hrs by SRB assay relative to control; assay type: functional; settings: read-out: GI
[16] = system: SNB-19; assay: Anticancer activity against human SNB-19 cells assessed as cell growth inhibition at 10 uM incubated for 48 hrs by SRB assay relative to control; assay type: functional; settings: read-out: GI
[17] = system: RPMI-8226; assay: Anticancer activity against human RPMI-8226 cells assessed as cell growth inhibition at 10 uM incubated for 48 hrs by SRB assay relative to control; assay type: functional; settings: read-out: GI
[18] = system: SW-620; assay: Anticancer activity against human SW-620 cells assessed as cell growth inhibition at 10 uM incubated for 48 hrs by SRB assay relative to control; assay type: functional; settings: read-out: GI
[19] = system: DU-145; assay: Anticancer activity against human DU-145 cells assessed as cell growth inhibition at 10 uM incubated for 48 hrs by SRB assay relative to control; assay type: functional; settings: read-out: GI
[20] = system: MCF7; assay: Anticancer activity against human MCF7 cells assessed as cell growth inhibition at 10 uM incubated for 48 hrs by SRB assay relative to control; assay type: functional; settings: read-out: GI
[21] = system: UACC-62; assay: Anticancer activity against human UACC-62 cells assessed as cell growth inhibition at 10 uM incubated for 48 hrs by SRB assay relative to control; assay type: functional; settings: read-out: GI
[22] = system: OVCAR-3; assay: Anticancer activity against human OVCAR-3 cells assessed as cell growth inhibition at 10 uM incubated for 48 hrs by SRB assay relative to control; assay type: functional; settings: read-out: GI
[23] = system: NCI-H226; assay: Anticancer activity against human NCI-H226 cells assessed as cell growth inhibition at 10 uM incubated for 48 hrs by SRB assay relative to control; assay type: functional; settings: read-out: GI
[24] = system: Hs-578T; assay: Anticancer activity against human Hs-578T cells assessed as cell growth inhibition at 10 uM incubated for 48 hrs by SRB assay relative to control; assay type: functional; settings: read-out: GI
[25] = system: HOP-62; assay: Anticancer activity against human HOP-62 cells assessed as cell growth inhibition at 10 uM incubated for 48 hrs by SRB assay relative to control; assay type: functional; settings: read-out: GI
[26] = system: EKVX; assay: Anticancer activity against human EKVX cells assessed as cell growth inhibition at 10 uM incubated for 48 hrs by SRB assay relative to control; assay type: functional; settings: read-out: GI
[27] = system: UO-31; assay: Anticancer activity against human UO-31 cells assessed as cell growth inhibition at 10 uM incubated for 48 hrs by SRB assay relative to control; assay type: functional; settings: read-out: GI
[28] = system: HCC 2998; assay: Anticancer activity against human HCC 2998 cells assessed as cell growth inhibition at 10 uM incubated for 48 hrs by SRB assay relative to control; assay type: functional; settings: read-out: GI
[29] = system: SK-MEL-5; assay: Anticancer activity against human SK-MEL-5 cells assessed as cell growth inhibition at 10 uM incubated for 48 hrs by SRB assay relative to control; assay type: functional; settings: read-out: GI
[30] = system: PC-3; assay: Anticancer activity against human PC-3 cells assessed as cell growth inhibition at 10 uM incubated for 48 hrs by SRB assay relative to control; assay type: functional; settings: read-out: GI
[31] = system: NCI-H522; assay: Anticancer activity against human NCI-H522 cells assessed as cell growth inhibition at 10 uM incubated for 48 hrs by SRB assay relative to control; assay type: functional; settings: read-out: GI
[32] = system: UACC-257; assay: Anticancer activity against human UACC-257 cells assessed as cell growth inhibition at 10 uM incubated for 48 hrs by SRB assay relative to control; assay type: functional; settings: read-out: GI
[33] = system: SK-MEL-2; assay: Anticancer activity against human SK-MEL-2 cells assessed as cell growth inhibition at 10 uM incubated for 48 hrs by SRB assay relative to control; assay type: functional; settings: read-out: GI
[34] = system: HT-29; assay: Anticancer activity against human HT-29 cells assessed as cell growth inhibition at 10 uM incubated for 48 hrs by SRB assay relative to control; assay type: functional; settings: read-out: GI
[35] = system: CAKI-1; assay: Anticancer activity against human CAKI-1 cells assessed as cell growth inhibition at 10 uM incubated for 48 hrs by SRB assay relative to control; assay type: functional; settings: read-out: GI
[36] = system: NCI-H23; assay: Anticancer activity against human NCI-H23 cells assessed as cell growth inhibition at 10 uM incubated for 48 hrs by SRB assay relative to control; assay type: functional; settings: read-out: GI
[37] = system: Malme-3M; assay: Anticancer activity against human Malme-3M cells assessed as cell growth inhibition at 10 uM incubated for 48 hrs by SRB assay relative to control; assay type: functional; settings: read-out: GI
[38] = system: SF-539; assay: Anticancer activity against human SF-539 cells assessed as cell growth inhibition at 10 uM incubated for 48 hrs by SRB assay relative to control; assay type: functional; settings: read-out: GI
[39] = system: SK-OV-3; assay: Anticancer activity against human SK-OV-3 cells assessed as cell growth inhibition at 10 uM incubated for 48 hrs by SRB assay relative to control; assay type: functional; settings: read-out: GI
[40] = system: KM12; assay: Anticancer activity against human KM12 cells assessed as cell growth inhibition at 10 uM incubated for 48 hrs by SRB assay relative to control; assay type: functional; settings: read-out: GI

CN(C)c1ccc(/C=N/Nc2nc(Nc3ccccc3)nc(Nc3ccc(S(N)(=O)=O)cc3)n2)cc1
inhibition of growth at 10 µM [1]: 26%
inhibition of growth at 10 µM [2]: < 10%
inhibition of growth at 10 µM [3]: 39%
inhibition of growth at 10 µM [4]: 53%
inhibition of growth at 10 µM [5]: 52%
inhibition of growth at 10 µM [6]: 11%
inhibition of growth at 10 µM [7]: 14%
inhibition of growth at 10 µM [8]: 53%
inhibition of growth at 10 µM [9]: 15%
Ki [10]: 13.3 nM
inhibition of growth at 10 µM [11]: < 10%
inhibition of growth at 10 µM [12]: 31%
inhibition of growth at 10 µM [13]: < 10%
inhibition of growth at 10 µM [14]: 14%
inhibition of growth at 10 µM [15]: 32%
inhibition of growth at 10 µM [16]: 16%
inhibition of growth at 10 µM [17]: 52%
inhibition of growth at 10 µM [18]: 17%
inhibition of growth at 10 µM [19]: 26%
inhibition of growth at 10 µM [20]: 40%
inhibition of growth at 10 µM [21]: < 10%
inhibition of growth at 10 µM [22]: 14%
inhibition of growth at 10 µM [23]: 21%
inhibition of growth at 10 µM [24]: 37%
inhibition of growth at 10 µM [25]: 12%
inhibition of growth at 10 µM [26]: < 10%
inhibition of growth at 10 µM [27]: 15%
inhibition of growth at 10 µM [28]: < 10%
inhibition of growth at 10 µM [29]: 14%
inhibition of growth at 10 µM [30]: 38%
inhibition of growth at 10 µM [31]: 20%
inhibition of growth at 10 µM [32]: < 10%
inhibition of growth at 10 µM [33]: 18%
inhibition of growth at 10 µM [34]: 43%
inhibition of growth at 10 µM [35]: < 10%
inhibition of growth at 10 µM [36]: 13%
inhibition of growth at 10 µM [37]: 25%
inhibition of growth at 10 µM [38]: 59%
inhibition of growth at 10 µM [39]: < 10%
inhibition of growth at 10 µM [40]: 33%
